Experimental data from paper PMC12340087, “Guanine is an inhibitor of c-jun terminal kinases” (Scientific Reports, 2025).

Columns and labels:
Assay in all cases: radiometric […]-ATP kinase assay, ATF2 substrate, ATP at apparent Km
Format in all cases: biochemical
JNK1 = biological target: T1, JNK1 (Homo sapiens, UniProt P45983)
T1 construct: gene MAPK8; untagged JNK1 (amino acids 1-384)

JNK3 = biological target: T2, JNK3 (Homo sapiens, UniProt P53779)
T2 construct: gene MAPK10; GST-tagged JNK3 (amino acids 1-426)

JNK2 = biological target: T3, JNK2 (Homo sapiens, UniProt P45984)
T3 construct: gene MAPK9; untagged JNK2 (amino acids 1-424)
T3 sequence (P45984 whole entry, the tested form may be a part): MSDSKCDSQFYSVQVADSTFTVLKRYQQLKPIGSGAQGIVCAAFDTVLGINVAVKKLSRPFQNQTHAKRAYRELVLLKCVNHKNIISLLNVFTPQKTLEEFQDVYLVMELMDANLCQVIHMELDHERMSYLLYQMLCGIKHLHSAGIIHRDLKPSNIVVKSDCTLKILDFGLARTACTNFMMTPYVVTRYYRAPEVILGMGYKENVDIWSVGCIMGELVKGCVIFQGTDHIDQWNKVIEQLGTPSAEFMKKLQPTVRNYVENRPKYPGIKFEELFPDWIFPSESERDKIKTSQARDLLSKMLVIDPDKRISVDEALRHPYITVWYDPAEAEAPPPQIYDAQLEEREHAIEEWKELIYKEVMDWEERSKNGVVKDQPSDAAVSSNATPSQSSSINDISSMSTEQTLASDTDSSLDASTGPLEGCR

T1 sequence (P45983 1-384 isoform P45983-2): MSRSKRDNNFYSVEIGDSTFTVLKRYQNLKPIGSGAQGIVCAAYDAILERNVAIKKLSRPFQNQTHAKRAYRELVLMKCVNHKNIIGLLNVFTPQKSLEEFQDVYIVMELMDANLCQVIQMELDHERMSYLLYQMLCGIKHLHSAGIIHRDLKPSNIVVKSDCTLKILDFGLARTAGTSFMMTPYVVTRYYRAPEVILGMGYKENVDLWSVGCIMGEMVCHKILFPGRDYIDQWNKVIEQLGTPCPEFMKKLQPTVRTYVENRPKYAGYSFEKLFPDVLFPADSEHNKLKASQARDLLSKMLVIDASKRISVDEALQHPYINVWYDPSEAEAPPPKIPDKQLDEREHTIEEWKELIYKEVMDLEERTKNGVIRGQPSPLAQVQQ
T2 sequence (P53779 1-426): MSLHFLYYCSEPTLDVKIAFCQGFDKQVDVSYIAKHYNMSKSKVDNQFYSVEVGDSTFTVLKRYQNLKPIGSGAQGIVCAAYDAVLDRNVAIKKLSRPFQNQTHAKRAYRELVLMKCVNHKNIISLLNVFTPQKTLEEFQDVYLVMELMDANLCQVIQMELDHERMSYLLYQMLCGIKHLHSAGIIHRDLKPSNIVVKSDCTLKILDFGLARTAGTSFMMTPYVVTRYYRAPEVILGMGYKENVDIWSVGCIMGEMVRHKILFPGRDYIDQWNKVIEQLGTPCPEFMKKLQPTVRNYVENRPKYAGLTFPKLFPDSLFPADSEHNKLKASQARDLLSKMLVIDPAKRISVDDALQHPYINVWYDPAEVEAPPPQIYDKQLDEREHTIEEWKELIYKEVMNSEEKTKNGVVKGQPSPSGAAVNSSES

Nc1nc2nc[nH]c2c(=O)[nH]1 [G, guanine]
IC50 (JNK1): 200 µM | IC50 (JNK3): 330 µM | IC50 (JNK2): 180 µM
